Laboratory results taken from patent publication US4616081A, “Cephalosporin compounds” (Asahi Kasei Kogyo Kabushiki Kaisha, priority 1982, dated 1986).

Columns and labels:
Proteus rettgeri ACR = assay: MIC against Proteus rettgeri ACR; type: cell-based
Method: (§1) Nextly, antibacterial activity or minimum inhibitory concentration (MIC) was measured and the results are shown in Table 1 with respect to the following representative compounds according to the present invention. [drawing 19]
(§2) With respect to Compound Nos. 14 and 15, antibacterial activity or minimum inhibitory concentration (MIC) was measured and the results are shown in Table 2. [drawing 21]

[1] = test system: Klebs. pneumoniae ATCC 10031; assay: MIC against Klebs. pneumoniae ATCC 10031; type: cell-based
Method: as §1, §2

E. coli W3630 RGN14 = assay: MIC against E. coli W3630 RGN14; type: cell-based
E. coli 0205 = assay: MIC against E. coli 0205; type: cell-based
[2] = test system: Enterobact. cloacae GN336; assay: MIC against Enterobact. cloacae GN336; type: cell-based
Method: as §1, §2

Shigella sonnei E33 = assay: MIC against Shigella sonnei E33; type: cell-based
Method: as §1, §2

[3] = maximum blood concentration after oral administration in Wister rats (HPLC and Bioassay); type: in vivo; conditions: Wister rat, fasted, 30 mg/kg, solution of pH 7 in phosphate buffer
Method: Further in the compounds according to the present invention, intestinal absorption is improved by the introduction of amino acids at the 3-position thereof. For example, comparison of the maximum blood concentration of the Compound Nos. 2, 3, 7, 8, 14, 15 and 23 with that of Comparative Compound (b) establishes and affirms the effects, as is shown below. In the above test, the method for measurement of blood concentration was as follows. Rate: Wister rat weighing 170 to 220 g Dose: 30 mg/kg Wister rats were fasted from the previous night but freely accessible to water. Each of drugs was administered as a solution of pH 7 in a phosphate buffer, when orally administered. The blood concentration was measured in accordance with the High Performance Liquid Chromatography (HPLC) method and the Bioassay method by using E. coli as bacteria for test.

E. coli W3630 RGN238 = assay: MIC against E. coli W3630 RGN238; type: cell-based
Serratia marcescens = assay: MIC against Serratia marcescens; type: cell-based
Method: as §1, §2

E. coli NIHJ-JC2 = assay: MIC against E. coli NIHJ-JC2; type: cell-based
Method: as §1, §2

[4] = acute toxicity test using mice, intraperitoneal; conditions: mouse, in vivo, ip
Text: In addition to excellent antibacterial activity, the compounds of the present invention are low in toxicity. For example, in acute toxicity test using mice, the following results were obtained with Compound Nos. 2, 3, 7, 14, 15 and 23 which were intraperitoneally administered.

E. coli W3630 = assay: MIC against E. coli W3630; type: cell-based
Method: as §1, §2

Staph. pyogenes NY5 = assay: MIC against Staph. pyogenes NY5; type: cell-based
E. coli W3630 PS3 = assay: MIC against E. coli W3630 PS3; type: cell-based
Method: as §1, §2

Staph. aureus MS27 = assay: MIC against Staph. aureus MS27; type: cell-based
Method: as §1, §2

[5] = test system: Enterobact. aerogenes 0655; assay: MIC against Enterobact. aerogenes 0655; type: cell-based
Method: as §1, §2

Proteus morganii 0239 = assay: MIC against Proteus morganii 0239; type: cell-based
Method: as §1, §2

Sarcina lutea ATCC 9341 = assay: MIC against Sarcina lutea ATCC 9341; type: cell-based
Method: as §1, §2

[6] = test system: Citrobact. freundii GN346; assay: MIC against Citrobact. freundii GN346; type: cell-based
Method: as §1, §2

Staph. aureus ATCC 6538P = assay: MIC against Staph. aureus ATCC 6538P; type: cell-based
Method: as §1, §2

[7] = test system: Salm. enteritidis Gaertner; assay: MIC against Salm. enteritidis Gaertner; type: cell-based
Method: as §1, §2

[8] = Bacterial count inoculated 10^6 cells/ml
[9] = Table 3, second listing of the strain, head prints 10^6 cells/ml
[10] = Bacterial count inoculated 10^8 cells/ml

In the case of CO/N=C(\C(=O)N[C@@H]1C(=O)N2C(C(=O)O)=C(CSc3ncc(C[C@H](N)C(=O)O)[nH]3)CS[C@H]12)c1csc(N)n1 [Compound No. 23], the “Minimum Inhibitory Concentration (MIC)” value (Proteus rettgeri ACR; [8]) is reported as at most 0.2, the “Minimum Inhibitory Concentration (MIC)” value (Proteus rettgeri ACR; [9]) is reported as 25 and the “Minimum Inhibitory Concentration (MIC)” value [1, 8] is reported as at most 0.2. For the same compound, the “Minimum Inhibitory Concentration (MIC)” value [1, 9] was 1.6, the “Minimum Inhibitory Concentration (MIC)” value (E. coli W3630 RGN14; [8]) was at most 0.2 and the “Minimum Inhibitory Concentration (MIC)” value (E. coli W3630 RGN14; [9]) was 6.3. For the same compound, the “Minimum Inhibitory Concentration (MIC)” value (E. coli 0205; [8]) was 0.4, the “Minimum Inhibitory Concentration (MIC)” value (E. coli 0205; [9]) was 12.5 and the “Minimum Inhibitory Concentration (MIC)” value [2, 8] was at most 0.2. For the same compound, the “Minimum Inhibitory Concentration (MIC)” value [2, 9] was 25, the “Minimum Inhibitory Concentration (MIC)” value (Shigella sonnei E33; [8]) was at most 0.2 and the “Minimum Inhibitory Concentration (MIC)” value (Shigella sonnei E33; [9]) was 1.6. For the same compound, the Cmax [3] was 6000 ng/mL, the “Minimum Inhibitory Concentration (MIC)” value (E. coli W3630 RGN238; [8]) was at most 0.2 and the “Minimum Inhibitory Concentration (MIC)” value (E. coli W3630 RGN238; [9]) was 25. For the same compound, the “Minimum Inhibitory Concentration (MIC)” value (Serratia marcescens; [8]) was at most 0.2, the “Minimum Inhibitory Concentration (MIC)” value (Serratia marcescens; [9]) was over 100 and the “Minimum Inhibitory Concentration (MIC)” value (E. coli NIHJ-JC2; [8]) was at most 0.2. For the same compound, the “Minimum Inhibitory Concentration (MIC)” value (E. coli NIHJ-JC2; [9]) was 12.5, the LD50 [4] was 10000 to 12000 mg/kg and the “Minimum Inhibitory Concentration (MIC)” value (E. coli W3630; [8]) was at most 0.2. For the same compound, the “Minimum Inhibitory Concentration (MIC)” value (E. coli W3630; [9]) was 6.3.
In the case of CC(C)(O/N=C(\C(=O)N[C@@H]1C(=O)N2C(C(=O)O)=C(CSc3nnc(CC(N)C(=O)O)s3)CS[C@H]12)c1csc(N)n1)C(=O)O (stereo partly shown) [Compound No. 8], the Cmax [3] is reported as 8000 ng/mL.
With CO/N=C(\C(=O)N[C@@H]1C(=O)N2C(C(=O)O)=C(COC(C)=O)CS[C@H]12)c1csc(N)n1 [Comparative Compound (b), reference compound] the “Minimum Inhibitory Concentration (MIC)” value (Proteus rettgeri ACR; [8]) was at most 0.2, the “Minimum Inhibitory Concentration (MIC)” value (Proteus rettgeri ACR; [9]) was 100 and the “Minimum Inhibitory Concentration (MIC)” value (Staph. pyogenes NY5; [8]) was at most 0.2. For the same compound, the “Minimum Inhibitory Concentration (MIC)” value (Staph. pyogenes NY5; [10]) was 0.2, the “Minimum Inhibitory Concentration (MIC)” value (E. coli W3630 PS3; [8]) was at most 0.2 and the “Minimum Inhibitory Concentration (MIC)” value (E. coli W3630 PS3; [10]) was 25. For the same compound, the “Minimum Inhibitory Concentration (MIC)” value (Staph. aureus MS27; [8]) was 1.6, the “Minimum Inhibitory Concentration (MIC)” value (Staph. aureus MS27; [10]) was 3.1 and the “Minimum Inhibitory Concentration (MIC)” value [5, 8] was at most 0.2. For the same compound, the “Minimum Inhibitory Concentration (MIC)” value [5, 10] was 50, the “Minimum Inhibitory Concentration (MIC)” value (Proteus morganii 0239; [8]) was at most 0.2 and the “Minimum Inhibitory Concentration (MIC)” value (Proteus morganii 0239; [10]) was 50. For the same compound, the “Minimum Inhibitory Concentration (MIC)” value [1, 8] was at most 0.2, the “Minimum Inhibitory Concentration (MIC)” value [1, 10] was 25 and the “Minimum Inhibitory Concentration (MIC)” value [1, 9] was 1.6. The “Minimum Inhibitory Concentration (MIC)” value (Sarcina lutea ATCC 9341; [8]) was at most 0.2, the “Minimum Inhibitory Concentration (MIC)” value (Sarcina lutea ATCC 9341; [10]) was at most 0.2 and the “Minimum Inhibitory Concentration (MIC)” value (E. coli W3630 RGN14; [8]) was at most 0.2. The “Minimum Inhibitory Concentration (MIC)” value (E. coli W3630 RGN14; [9]) was 100, the “Minimum Inhibitory Concentration (MIC)” value (E. coli 0205; [8]) was 0.4 and the “Minimum Inhibitory Concentration (MIC)” value (E. coli 0205; [9]) was 50. The “Minimum Inhibitory Concentration (MIC)” value [2, 8] was at most 0.2, the “Minimum Inhibitory Concentration (MIC)” value [2, 10] was 50 and the “Minimum Inhibitory Concentration (MIC)” value [2, 9] was 50. For the same compound, the “Minimum Inhibitory Concentration (MIC)” value (Shigella sonnei E33; [8]) was at most 0.2, the “Minimum Inhibitory Concentration (MIC)” value (Shigella sonnei E33; [10]) was 1.6 and the “Minimum Inhibitory Concentration (MIC)” value (Shigella sonnei E33; [9]) was 3.1. For the same compound, the Cmax [3] was 200 ng/mL, the “Minimum Inhibitory Concentration (MIC)” value (E. coli W3630 RGN238; [8]) was at most 0.2 and the “Minimum Inhibitory Concentration (MIC)” value (E. coli W3630 RGN238; [9]) was at least 100. For the same compound, the “Minimum Inhibitory Concentration (MIC)” value [6, 8] was 25, the “Minimum Inhibitory Concentration (MIC)” value [6, 10] was 100 and the “Minimum Inhibitory Concentration (MIC)” value (Serratia marcescens; [8]) was at most 0.2. For the same compound, the “Minimum Inhibitory Concentration (MIC)” value (Serratia marcescens; [10]) was 50, the “Minimum Inhibitory Concentration (MIC)” value (Serratia marcescens; [9]) was over 100 and the “Minimum Inhibitory Concentration (MIC)” value (E. coli NIHJ-JC2; [10]) was 6.3. The “Minimum Inhibitory Concentration (MIC)” value (E. coli NIHJ-JC2; [9]) was 25, the “Minimum Inhibitory Concentration (MIC)” value (Staph. aureus ATCC 6538P; [8]) was 1.6 and the “Minimum Inhibitory Concentration (MIC)” value (Staph. aureus ATCC 6538P; [10]) was 3.1. For the same compound, the “Minimum Inhibitory Concentration (MIC)” value [7, 8] was at most 0.2, the “Minimum Inhibitory Concentration (MIC)” value [7, 10] was 6.3 and the “Minimum Inhibitory Concentration (MIC)” value (E. coli W3630; [8]) was at most 0.2. For the same compound, the “Minimum Inhibitory Concentration (MIC)” value (E. coli W3630; [10]) was 25 and the “Minimum Inhibitory Concentration (MIC)” value (E. coli W3630; [9]) was 6.3.
